Test results: patent US7432388B2 (Allergan, Inc., priority 2003, dated 2008)

Columns and labels:
RARα [1] = target: T1, RARα (Homo sapiens, UniProt P10276); experiment: chimeric receptor transactivation assay (agonist-like activity); format: cell-based; parameters: RAR EC50 (nM) (% Efficiency) α; details: read-out: RAR EC50 (nM) (% Efficiency) α
T1 sequence (P10276 183-417 limits assumed): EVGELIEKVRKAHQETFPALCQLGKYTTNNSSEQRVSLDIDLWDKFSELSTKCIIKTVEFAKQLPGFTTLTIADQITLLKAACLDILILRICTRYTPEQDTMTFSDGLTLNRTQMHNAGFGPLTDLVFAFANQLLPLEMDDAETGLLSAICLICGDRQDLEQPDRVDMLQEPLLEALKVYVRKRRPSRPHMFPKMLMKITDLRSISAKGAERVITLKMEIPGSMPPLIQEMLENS
Procedure: Specifically, one assay in which the compounds were tested is a chimeric receptor transactivation assay which tests for agonist-like activity in the RARα, RARγ and RARγ receptor subtypes, and which is based on work published by Feigner P. L. and Holm M (1989) Focus, 112 is described in detail in U.S. Pat. No. 5,455,265. The specification of U.S. Pat. No. 5,455,265 is hereby expressly incorporated by reference.
(§1) A holoreceptor transactivation assay and a ligand binding assay which measure the antagonist/agonist like activity of the compounds of the invention, or their ability to bind to the several retinoid receptor subtypes, respectively, are described in published PCT Application No. WO WO93/11755 (particularly on pages 30-33 and 37-41) published on Jun. 24, 1993, the specification of which is also incorporated herein by reference. A detailed experimental procedure for holoreceptor transactivations has been described by Heyman et al. Cell 68, 397-406, (1992); Allegretto et al. J. Biol. Chem. 268, 26625-26633, and Mangelsdorf et al. The Retinoids: Biology, Chemistry and Medicine, pp 319-349, Raven Press Ltd., New York, which are expressly incorporated herein by reference. The results obtained in this assay are expressed in EC50 numbers, as they are also in the chimeric receptor transactivation assay. The other functional assay running in the presence of 1 nM all-trans retinoic acid, namely PGA-RAR antagonist assay (utilizing glucocorticoid-retinoid chimeric receptors), is a modified chimeric receptor transactivation assay which tests the compounds for their antagonist-like activity in the RARα, RARγ and RARγ receptor subtypes. The results from this assay are normally expressed in IC50 numbers (See Teng et al. J. Med. Chem. 40, 2445-2452, (1997) incorporated herein by reference.)

RARβ [2] = target: T2, RARβ (Homo sapiens, UniProt P10826); experiment: ligand binding assay; details: expressed in Ki numbers, read-out: RAR Binding β
T2 sequence (P10826 1-455): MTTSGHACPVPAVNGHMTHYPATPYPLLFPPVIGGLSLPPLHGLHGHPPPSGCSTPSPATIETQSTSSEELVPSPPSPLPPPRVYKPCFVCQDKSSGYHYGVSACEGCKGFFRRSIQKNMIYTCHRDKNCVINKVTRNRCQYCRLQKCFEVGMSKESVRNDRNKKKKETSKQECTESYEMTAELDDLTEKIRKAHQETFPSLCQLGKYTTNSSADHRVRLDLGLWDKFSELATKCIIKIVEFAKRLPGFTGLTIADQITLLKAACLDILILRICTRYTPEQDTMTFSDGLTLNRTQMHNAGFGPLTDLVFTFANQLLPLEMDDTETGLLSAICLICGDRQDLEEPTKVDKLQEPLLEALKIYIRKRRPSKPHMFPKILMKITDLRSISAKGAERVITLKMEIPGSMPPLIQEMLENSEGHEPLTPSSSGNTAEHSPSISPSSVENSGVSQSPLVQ
From the text: as §1
The results of the ligand binding assay are expressed in Ki numbers. (See Cheng et al. Biochemical Pharmacology Vol. 22 pp 3099-3108, expressly incorporated herein by reference.)

RARα [3] = target: T1, RARα; experiment: PGA-RAR antagonist assay (glucocorticoid-retinoid chimeric receptors); format: cell-based; parameters: other: in the presence of 1 nM all-trans retinoic acid; fused on or other part: Glucocorticoid receptor DNA-recognition part in place of RAR's own; details: in the presence of 1 nM all-trans retinoic acid; read-out: RAR IC50 (nM) (% Inhibition) α
From the text: as §1
(§2) Percentage inhibition in an antagonist assay is expressed as a percentage of the maximum inhibition of the transaction activity induced by 1 nM all-trans retinoic acid.

RARβ [4] = target: T3, RARβ (Homo sapiens, UniProt P10826); experiment: as above; format: cell-based; parameters: other: in the presence of 1 nM all-trans retinoic acid; fused on or other part: Glucocorticoid receptor DNA-recognition part in place of RAR's own; details: in the presence of 1 nM all-trans retinoic acid; read-out: RAR IC50 (nM) (% Inhibition) β
T3 sequence (P10826 183-417 limits assumed): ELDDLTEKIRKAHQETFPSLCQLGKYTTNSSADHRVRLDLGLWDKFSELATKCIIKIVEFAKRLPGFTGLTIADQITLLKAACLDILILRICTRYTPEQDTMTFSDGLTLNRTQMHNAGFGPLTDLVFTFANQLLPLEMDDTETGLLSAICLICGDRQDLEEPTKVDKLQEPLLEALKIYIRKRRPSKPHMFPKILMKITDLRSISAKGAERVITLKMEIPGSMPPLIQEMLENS
From the text: as §1, §2

Row | SMILES | EC50 (RARα [1]) [nM] | Ki (RARβ [2]) [µM] | IC50 (RARα [3]) [nM] | IC50 (RARβ [4]) [nM]
1 | Cc1ccc(C2=CC(C)(C)c3cc(C(/C=C/c4ccc(C(=O)O)cc4)=N\O)ccc32)cc1 [Compound 16b] | > 10000 | 10 | > 1000 | > 1000
2 | Cc1ccc(C2=CCC(C)(C)c3cc(C(/C=C/c4ccc(C(=O)O)cc4)=N/O)ccc32)cc1 [Compound 7a, E-4-[3-(8,8-Dimethyl-5-p-tolyl-7,8-dihydro-naphthalen-2-yl)-3-hydroxyimino-propenyl]-benzoic acid] | > 10000 | 5 | > 1000 | > 1000
3 | Cc1ccc(C2=CC(C)(C)c3cc(C(/C=C/c4ccc(C(=O)O)cc4F)=N\O)ccc32)cc1 [Compound 18b, Z-4-[3-(3,3-Dimethyl-1-p-tolyl-3H-inden-5-yl)-3-hydroxyimino-propenyl]-3-fluoro-benzoic acid] | > 10000 | 10 | > 1000 | > 1000
4 | Cc1ccc(C2=CC(C)(C)c3cc(C(/C=C/c4ccc(C(=O)O)cc4)=N/O)ccc32)cc1 [Compound 16a] | > 10000 | 10 | > 1000 | > 1000
5 | Cc1ccc(C2=CCC(C)(C)c3cc(C(/C=C/c4ccc(C(=O)O)cc4F)=N\O)ccc32)cc1 [Compound 9b, Z-4-[3-(8,8-Dimethyl-5-p-tolyl-7,8-dihydro-naphthalen-2-yl)-3-hydroxyimino-propenyl]-3-fluoro-benzoic acid] | > 10000 | 10 | > 1000 | > 1000
6 | Cc1ccc(C2=CC(C)(C)c3cc(C(/C=C/c4ccc(C(=O)O)cc4F)=N/O)ccc32)cc1 [Compound 18a, E-4-[3-(3,3-Dimethyl-1-p-tolyl-3H-inden-5-yl)-3-hydroxyimino-propenyl]-3-fluoro-benzoic acid] | > 10000 | 10 | > 1000 | > 1000
7 | Cc1ccc(C2=CCC(C)(C)c3cc(C(/C=C/c4ccc(C(=O)O)cc4F)=N/O)ccc32)cc1 [Compound 9a, E-4-[3-(8,8-Dimethyl-5-p-tolyl-7,8-dihydro-naphthalen-2-yl)-3-hydroxyimino-propenyl]-3-fluoro-benzoic acid] | > 10000 | 15 | > 1000 | > 1000
8 | Cc1ccc(C2=CCC(C)(C)c3cc(C(/C=C/c4ccc(C(=O)O)cc4)=NO)ccc32)cc1 (racemic) [Compound 7c, 4-[3-(8,8-Dimethyl-5-p-tolyl-7,8-dihydro-naphthalen-2-yl)-3-hydroxyimino-propenyl]-benzoic acid] | > 10000 | 1.3 | > 50000 | > 100000
9 | Cc1ccc(C2=CCC(C)(C)c3cc(C(/C=C/c4ccc(C(=O)O)cc4)=N\O)ccc32)cc1 [Compound 7b, Z-4-[3-(8,8-dimethyl-5-p-tolyl-7,8-dihydro-naphthalen-2-yl)-3-hydroxyimino-propenyl]-benzoic acid] | > 10000 | 1.9 | > 1000 | > 1000
